Laboratory results published in patent US11220523B2, “Carbohydrate ligands that bind to IgM antibodies against myelin-associated glycoprotein” (UNIVERSITÄT BASEL, priority 2014, dated 2022).

System: anti-MAG IgM antibodies
Assay: Competitive binding assay (modified anti-MAG ELISA): compounds compete with immobilized MAG for anti-MAG IgM antibodies of patient sera
Parameters: species or system human
Description: FIG. 1. Schematic representation of a competitive binding assay • (a) Incubation of MAG-coated plates with anti-MAG IgM (patient sera) and polymer 25. (b) Wash step. (c) Incubation with anti-human IgM antibody coupled to horseradish peroxidase. (d) Wash step. (e) Addition of tetramethylbenzidin (TMB) substrate. (f) Addition of acidic stop solution and measurement of the optical density.
The synthesized carbohydrate monomers (1 and 2) and the polymer 25 were tested in an established ELISA assay (Bühlmann Laboratories, Schonenbuch, Switzerland) applied for the diagnosis of anti-MAG neuropathy and for therapy control in clinic. The assay is used to determine serum concentration of anti-MAG IgM autoantibodies. The assay was modified to a competitive binding assay. The synthesized compounds and serum samples containing anti-MAG IgM antibodies are given into 96 well plates, coated with purified MAG from human brain. Immobilized MAG and the synthesized compounds compete for binding to the anti-MAG IgM antibodies. After a washing step MAG-bound IgM antibodies are detected with a horseradish peroxidase labeled antibody, followed by a colorimetric reaction. Successful competition of the compounds with MAG leads to a decrease in measured OD450 nm (optical density), because they block the binding sites of IgM antibodies, preventing them from binding to MAG. The principle of the assay is depicted in FIG. 1. For the evaluation of the compounds, four sera from different patients ([…]) with reported high anti-MAG IgM antibody titers were chosen. IgM antibody concentrations were determined for each serum in preliminary experiments. Serum dilutions with measured OD450 nm values around 1.0 were chosen for the assay, to be able to compare the measured IC50 values (half maximal inhibitory concentration) which are antibody concentration dependent. Serum dilutions: DP 1:2′500, KH 1:3,000, SJ 1:7,500, MK 1:23,000.
IC50 values of compound 1 were determined for all sera. Those of compound 2 were determined for serum MK with the highest antibody affinity for 1 and for serum SJ with the lowest antibody affinity for 1. The assay was repeated four times. From the received binding curves for each serum, the three best fitted were chosen and normalized for IC50 calculation. For curve generation of compound 2 an artificially high concentration point at 500 mM with 0% antibody binding was added because even at the highest concentration of 2 (50 mM) the inhibition of antibody binding was not 100%. The IC50 values for compound 2 are therefore to be considered as approximated values, although they changed only marginally upon addition of the high concentration point. Under the same assay conditions the carbohydrate polymer was tested with the sera KH, MK and SJ. The measurements were repeated at least three times. The three best fitted curves for each serum were chosen for IC50 calculation.
Sera of four patients (three men and one […]) were investigated. They all were tested positive for a monoclonal IgM gammopathy and were diagnosed with anti-MAG neuropathy at the University Hospital of Basel (Basel, Switzerland). Serum anti-MAG antibody titers were determined by an ELISA assay (Bühlmann Laboratories, Schonenbuch, Switzerland). Sera from two patients with a monoclonal IgM gammopathy and negative anti-MAG activity served as control. Use of sera was approved by the ethics committee of the University Hospital of Basel.
An anti-MAG ELISA kit (Bühlmann Laboratories, Schonenbuch, Switzerland) was used for the biological evaluation of compounds 1, 2 and 25. The 96 well plates coated with purified MAG from human brain were washed four times with washing buffer (300 μl/well) before adding the carbohydrate ligands in seven different concentrations (0.05-50 mM for the monomers 1 and 2 and 0.05-5,000 nM for the polymer 25), 25 μl/well. The patient sera containing anti-MAG IgM antibodies were added in the appropriate dilutions, 25 μl/well. […]

Row | inhibition of antibody binding (highest concentration, 50 mM) [%] | weaker binding to the unsulfated disaccharide (versus sulfated disaccharide 1) (patient serum MK) | IC50 (patient serum MK, approximated value, artificial point at 500 mM with 0% antibody binding added for curve fit) [µM] | lower binding affinity to the unsulfated disaccharide (versus sulfated disaccharide 1) (patient serum SJ) [fold] | IC50 (patient serum SJ, approximated value, artificial point at 500 mM with 0% antibody binding added for curve fit) [µM] | IC50 (patient serum DP (dilution 1:2′500), MAG-coated plates) [µM] | IC50 (patient serum KH (dilution 1:3,000), MAG-coated plates) [µM] | IC50 (patient serum MK (dilution 1:23,000), MAG-coated plates) [µM] | IC50 (patient serum SJ (dilution 1:7,500), MAG-coated plates) [µM] | SMILES
1 | < 100 | approximately 230 fold | 29000 ± 500 | 12.6 | 10000 ± 1000 | – | – | – | – | COc1ccc(OC2OC(CO)C(O)C(OC3OC(C(=O)O)C(O)C(O)C3O)C2O)cc1 [Compound 2, 4-Methoxyphenyl (Sodium β-D-Glucopyranuronate)-(1→3)-β-D-Galactopyranoside]
2 | – | – | – | – | – | 536 ± 23.5 | 614 ± 20.1 | 124 ± 9.5 | 793 ± 24 | COc1ccc(OC2OC(CO)C(O)C(OC3OC(C(=O)O)C(O)C(OS(=O)(=O)O)C3O)C2O)cc1 [Compound 1, 4-Methoxyphenyl (Disodium-3-O-Sulfo-β-D-Glucopyranuronate)-(1→3)-β-D-Galacto-Pyranoside]
